The nature of data set [1]: Microsomal Stability Assay, mouse liver microsomes. To be noted: for microsomal CLint at 0.1 uM: male, CD-1, pH 7.4, mouse liver microsomes 0.1 mg/mL, 0.1 uM compound; for Microsomal Stability Mouse % rem. 60 min: mouse liver microsomes. Type of data set: in vitro ADME. Here is the method: (§1) Samples were then mixed and centrifuged. Supernatants were used for HPLC-MS/MS analysis. […] Peak areas corresponding to the test compound were recorded.
Background: Microsomes from liver hold many membrane-bound enzymes, among them those of drug oxidation.

Data set [2] in a line: Microsomal Stability Assay, human liver microsomes. The class given is in vitro ADME. To be noted: for microsomal CLint at 0.1 uM: both sexes, pH 7.4, human liver microsomes 0.1 mg/mL, 0.1 uM compound; for Microsomal Stability Human % rem. 60 min: human liver microsomes. As to the method:
as §1

Data set [3] deals with pDNA-PK induction in HCT116 tumour spheroids. Briefly: Multicellular tumour spheroid + radiation, pDNA-PK (ser2056) inhibition, immunohistochemical endpoint, HCT116. The class given is cell-based. To be noted: Homo sapiens, 20 Gy, 20% O2. Summed up: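 HCT116 spheroids (~0.5 mm) in MEM/10% FBS, 20% O2, 37° C., pre-incubated 1 h with compound (10 or 5 μM down to 3.5 nM), irradiated 20 Gy, then 2 h further with compound. Cryosections immunostained for pDNA-PK ser2056; EC50 is concentration halving radiation-induced pDNA-PK.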

Data set [4] can be described thus: Hepatocyte Stability Assay, mouse hepatocytes. The class given is in vitro ADME. To be noted: for hepatocyte CLint at 1 uM: male, CD-1, cryopreserved hepatocytes, pH 7.3, mouse hepatocytes 0.7 million cells per mL, 1 uM compound; for Hepatocyte Stability Mouse % rem. 120 min: mouse hepatocytes. The gist of the method:
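Pooled cryopreserved hepatocytes (male CD-1 mice, ≥10; mixed-gender human donors, ≥10) at 0.7 million viable cells/mL in Krebs-Heinslet buffer pH 7.3, compound 1 uM, ≤0.01% DMSO. Incubated at 37° C./5% CO2 up to 2 h, acetonitrile-quenched; parent peak area by HPLC-MS/MS.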

[5] abbreviates: HCT-116, 2 hours following radiation, Example 9 Study 2, read-out: Spheroid Cell line: HCT116 Immunohistochemical endpoint pDNA-PK inhibition EC50.
Setting [6] is: HCT-116, Spheroid, Cell Line: HCT115 (so in the source), 2 hours following radiation, Example 7, read-out: EC50, Immunohistochemical endpoint, pDNA-PK inhibition.

Read-outs that look alike come from different tables or passages of the source.

As a reminder, the microsomal CLint is the capacity of the preparation to metabolise the compound, expressed as a volume cleared per time. Lower therefore signals greater metabolic stability. One may read the EC50 as the concentration at which the effect is half-maximal. Broadly, the hepatocyte CLint is a measure of how fast metabolising enzymes remove a compound, apart from limits set by blood flow. Higher therefore signals faster metabolism. As to `CN(C)C(=O)COc1cnc(N[C@H]2CC[C@@H](Oc3nc(N4CCOCC4)cc4ncccc34)CC2)nc1` [Compound 54, N,N-Dimethyl-2-((2-(((1s,4s)-4-((7-morpholino-1,6-naphthyridin-5-yl)oxy)cyclohexyl)amino)pyrimidin-5-yl)oxy)acetamide], the results for the microsomal CLint at 0.1 uM in data set [1] and in data set [2] were below 116 µL/min/mg and above 116 µL/min/mg, respectively. Further, the “Microsomal Stability Mouse % rem. 60 min” value in data set [1] is reported as “G (% remaining = 50-75%)”. In data set [2], the “Microsomal Stability Human % rem. 60 min” value was “E (% remaining = 0-25%)”. For the same compound, the EC50 in data set [3] (HCT-116, 2 h, spheroids, Example 8, read-out: Cell line: HCT116 Immunohistochemical endpoint pDNA-PK inhibition EC50) lay in the range of 10 to 500 nM; in data set [3] (setting [5]) it was 10 to 500 nM; in data set [3] (setting [6]), 10 to 500 nM. Also, in data set [4], the hepatocyte CLint at 1 uM is below 8.2 µL/min/1e6 cells. In data set [4], the “Hepatocyte Stability Mouse % rem. 120 min” value is on record as “G (% remaining = 50-75%)”.

Turning to `CN1CCN(C(=O)COc2cnc(N[C@H]3CC[C@@H](Oc4nc(N5CCOCC5)cc5ncccc45)CC3)nc2)CC1` [Compound 62, 1-(4-Methylpiperazin-1-yl)-2-((2-(((1s,4s)-4-((7-morpholino-1,6-naphthyridin-5-yl)oxy)cyclohexyl)amino)pyrimidin-5-yl)oxy)ethan-1-one], in data set [1], the microsomal CLint at 0.1 uM is below 116 µL/min/mg and the “Microsomal Stability Mouse % rem. 60 min” value is reported as “F (% remaining = 25-50%)”. Further, in data set [2], the microsomal CLint at 0.1 uM was below 116 µL/min/mg and the “Microsomal Stability Human % rem. 60 min” value was “G (% remaining = 50-75%)”. For the same compound, the EC50 in data set [3] (setting [5]) lay in the range of 500 to 1000 nM. In addition, the EC50 in data set [3] (setting [6]) lay in the range of 500 to 1000 nM. In addition, in data set [4], the hepatocyte CLint at 1 uM was below 8.2 µL/min/1e6 cells and the “Hepatocyte Stability Mouse % rem. 120 min” value is “H (% remaining = 75-100%)”.

Regarding `CN(C)C(=O)COc1ccc(C(=O)N[C@H]2CC[C@@H](Oc3nc(N4CCOCC4)cc4ncccc34)CC2)cn1` [Compound 117, 6-(2-(dimethylamino)-2-oxoethoxy)-N-((1s,4s)-4-((7-morpholino-1,6-naphthyridin-5-yl)oxy)cyclohexyl)nicotinamide], in data set [1], the microsomal CLint at 0.1 uM is below 116 µL/min/mg and the “Microsomal Stability Mouse % rem. 60 min” value is “F (% remaining = 25-50%)”. In data set [2], the microsomal CLint at 0.1 uM was above 116 µL/min/mg and the “Microsomal Stability Human % rem. 60 min” value was “E (% remaining = 0-25%)”. Moreover, in data set [3] (setting [5]), the EC50 was 500 to 1000 nM. Moreover, in data set [3] (setting [6]), the EC50 lay in the range of 500 to 1000 nM. Besides, in data set [4], the hepatocyte CLint at 1 uM was below 8.2 µL/min/1e6 cells and the “Hepatocyte Stability Mouse % rem. 120 min” value was “G (% remaining = 50-75%)”.

As for `O=C(COc1cnc(N[C@H]2CC[C@@H](Oc3nc(N4CCOCC4)cc4ncccc34)CC2)nc1)N1CCC1` [Compound 75, 1-(Azetidin-1-yl)-2-((2-(((1s,4s)-4-((7-morpholino-1,6-naphthyridin-5-yl)oxy)cyclohexyl)amino)pyrimidin-5-yl)oxy)ethan-1-one], in data set [1], the microsomal CLint at 0.1 uM is below 116 µL/min/mg and the “Microsomal Stability Mouse % rem. 60 min” value is “G (% remaining = 50-75%)”. Moreover, in data set [2], the microsomal CLint at 0.1 uM is above 116 µL/min/mg and the “Microsomal Stability Human % rem. 60 min” value is on record as “F (% remaining = 25-50%)”. Further, the EC50 in data set [3] (setting [5]) fell in the range of 500 to 1000 nM. In addition, in data set [3] (setting [6]), the EC50 is 500 to 1000 nM. In addition, in data set [4], the hepatocyte CLint at 1 uM is below 8.2 µL/min/1e6 cells and the “Hepatocyte Stability Mouse % rem. 120 min” value is “G (% remaining = 50-75%)”.

Turning to `NCCOc1cnc(N[C@H]2CC[C@@H](Oc3nc(N4CCOCC4)cc4ncccc34)CC2)nc1` [Compound 65, 5-(2-Aminoethoxy)-N-((1s,4s)-4-((7-morpholino-1,6-naphthyridin-5-yl)oxy)cyclohexyl)pyrimidin-2-amine], in data set [1], the microsomal CLint at 0.1 uM is below 116 µL/min/mg and the “Microsomal Stability Mouse % rem. 60 min” value is “G (% remaining = 50-75%)”. In data set [2], the intrinsic clearance (microsomal CLint) at 0.1 uM was above 116 µL/min/mg and the “Microsomal Stability Human % rem. 60 min” value was “G (% remaining = 50-75%)”. The EC50 in data set [3] (setting [5]) lay within 1000 to 10000 nM. In data set [3] (setting [6]), the EC50 fell in the range of 1000 to 10000 nM. In data set [4], the hepatocyte CLint at 1 uM is below 8.2 µL/min/1e6 cells and the “Hepatocyte Stability Mouse % rem. 120 min” value is “G (% remaining = 50-75%)”.

These data come from patent US20240239790A1, “7-Morpholino-1,6-Naphthyridin-5-yl Derivatives and Pharmaceutical Compositions Thereof Useful as DNA-PK Inhibitor” (adMare Therapeutics Society, priority 2021, published 2024).
